# Key:
# [1] = AUC (0 to t) in Sprague-Dawley rat at 5 mg/kg, po; assay type: ADME, organism-based; parameters: dose 5 mg/kg, route oral; settings: plasma
# [2] = Cmax in Sprague-Dawley rat at 5 mg/kg, po; assay type: ADME, organism-based; parameters: dose 5 mg/kg, route oral; settings: in vivo
# [3] = AUC (0 to t) in SCID mouse at 1 mg/kg, iv; assay type: ADME, organism-based; parameters: dose 1 mg/kg, route intravenous; settings: plasma
# Mus musculus [4] = test: Toxicity in human SUP-M2 cells xenografted SCID mouse assessed as body weight loss at 55 mg/kg, po BID measured 12 days post dose; assay type: organism-based; parameters: dose 55 mg/kg, route oral; settings: in vivo, 288 h
# [5] = Clearance in SCID mouse at 1 mg/kg, iv; assay type: ADME, organism-based; parameters: dose 1 mg/kg, route intravenous; settings: in vivo
# [6] = AUC (0 to t) in SCID mouse at 10 mg/kg, po; assay type: ADME, organism-based; parameters: dose 10 mg/kg, route oral; settings: plasma
# [7] = biological target: ALK tyrosine kinase receptor (Homo sapiens, UniProt Q9UM73); test: Inhibition of GST-tagged human ALK cytoplasmic domain (1058-1620) expressed in Sf21 insect cells using GST-tagged human recombinant PLC-gamma/substrate by ELISA
# [8] = Volume of distribution in Sprague-Dawley rat at 1 mg/kg, iv; assay type: ADME, organism-based; parameters: dose 1 mg/kg, route intravenous; settings: in vivo
# Mus musculus [9] = test: Toxicity in human SUP-M2 cells xenografted SCID mouse assessed as incidence of overt toxicity at 55 mg/kg, po BID measured 12 days post dose; assay type: organism-based; parameters: dose 55 mg/kg, route oral; settings: in vivo, 288 h
# [10] = Half life in SCID mouse at 1 mg/kg, iv; assay type: ADME, organism-based; parameters: dose 1 mg/kg, route intravenous; settings: in vivo
# [11] = Oral bioavailability in Sprague-Dawley rat at 5 mg/kg; assay type: ADME, organism-based; settings: in vivo
# [12] = AUC (0 to t) in Sprague-Dawley rat at 1 mg/kg, iv; assay type: ADME, organism-based; parameters: dose 1 mg/kg, route intravenous; settings: plasma
# [13] = Half life in Sprague-Dawley rat at 1 mg/kg, iv; assay type: ADME, organism-based; parameters: dose 1 mg/kg, route intravenous; settings: in vivo
# [14] = Half life in SCID mouse at 10 mg/kg, po; assay type: ADME, organism-based; parameters: dose 10 mg/kg, route oral; settings: in vivo
# [15] = biological target: NPM/ALK (Nucleophosmin/ALK tyrosine kinase receptor) (Homo sapiens, UniProt Q9UM73); test: Inhibition of human NPM-ALK phosphorylation using 4-MeUP substrate by cell based assay
# [16] = Oral bioavailability in SCID mouse at 10 mg/kg; assay type: ADME, organism-based; settings: in vivo
# Mus musculus [17] = test: Inhibition of NPM-ALK phosphorylation in human SUP-M2 cells xenografted in SCID mouse at 30 mg/kg, po administered as single dose measured 12 hrs post dose; assay type: functional; settings: SUP-M2, 12 h
# [18] = Half life in monkey liver microsomes at 0.5 uM preincubated for 10 mins before NADPH and UDPGA challenge; assay type: ADME, Macaca mulatta, Microsome; settings: rhesus monkey
# Insulin receptor = Insulin receptor (Homo sapiens, UniProt P06213); test: Inhibition of IR
# Mus musculus [19] = test: Toxicity in human SUP-M2 cells xenografted SCID mouse assessed as body weight loss at 30 mg/kg, po BID measured 12 days post dose; assay type: organism-based; parameters: dose 30 mg/kg, route oral; settings: in vivo, 288 h
# [20] = Half life in Sprague-Dawley rat liver microsomes at 0.5 uM preincubated for 10 mins before NADPH and UDPGA challenge; assay type: ADME, Microsome
# [21] = Volume of distribution in SCID mouse at 1 mg/kg, iv; assay type: ADME, organism-based; parameters: dose 1 mg/kg, route intravenous; settings: in vivo
# [22] = Cmax in SCID mouse at 10 mg/kg, po; assay type: ADME, organism-based; parameters: dose 10 mg/kg, route oral; settings: in vivo
# [23] = Plasma concentration in human SUP-M2 cells xenografted SCID mouse at 30 mg/kg, po administered as single dose measured 12 hrs post dose; assay type: ADME, organism-based; parameters: dose 30 mg/kg, route oral
# [24] = Half life in human liver microsomes at 0.5 uM preincubated for 10 mins before NADPH and UDPGA challenge; assay type: ADME, Microsome
# [25] = Tmax in Sprague-Dawley rat at 5 mg/kg, po; assay type: ADME, organism-based; parameters: dose 5 mg/kg, route oral; settings: in vivo
# [26] = Ratio of tumor concentration at 12 hrs to plasma concentration at 12 hrs in human SUP-M2 cells xenografted SCID mouse at 30 mg/kg, po administered as single dose; assay type: ADME, organism-based; parameters: dose 30 mg/kg, route oral
# [27] = Tmax in SCID mouse at 10 mg/kg, po; assay type: ADME, organism-based; parameters: dose 10 mg/kg, route oral; settings: in vivo
# Mus musculus [28] = test: Toxicity in human SUP-M2 cells xenografted SCID mouse assessed as incidence of overt toxicity at 30 mg/kg, po BID measured 12 days post dose; assay type: organism-based; parameters: dose 30 mg/kg, route oral; settings: in vivo, 288 h
# [29] = Clearance in Sprague-Dawley rat at 1 mg/kg, iv; assay type: ADME, organism-based; parameters: dose 1 mg/kg, route intravenous; settings: in vivo
# Plasma = test: Ratio of plasma concentration at 12 hrs to plasma concentration at 24 hrs in human SUP-M2 cells xenografted SCID mouse at 30 mg/kg, po administered as single dose; assay type: ADME, organism-based; parameters: dose 30 mg/kg, route oral; settings: in vivo
# [30] = Half life in CD1 mouse liver microsomes at 0.5 uM preincubated for 10 mins before NADPH and UDPGA challenge; assay type: ADME, Microsome
# NPM/ALK (Nucleophosmin/ALK tyrosine kinase receptor), sequence (Q9UM73 whole entry): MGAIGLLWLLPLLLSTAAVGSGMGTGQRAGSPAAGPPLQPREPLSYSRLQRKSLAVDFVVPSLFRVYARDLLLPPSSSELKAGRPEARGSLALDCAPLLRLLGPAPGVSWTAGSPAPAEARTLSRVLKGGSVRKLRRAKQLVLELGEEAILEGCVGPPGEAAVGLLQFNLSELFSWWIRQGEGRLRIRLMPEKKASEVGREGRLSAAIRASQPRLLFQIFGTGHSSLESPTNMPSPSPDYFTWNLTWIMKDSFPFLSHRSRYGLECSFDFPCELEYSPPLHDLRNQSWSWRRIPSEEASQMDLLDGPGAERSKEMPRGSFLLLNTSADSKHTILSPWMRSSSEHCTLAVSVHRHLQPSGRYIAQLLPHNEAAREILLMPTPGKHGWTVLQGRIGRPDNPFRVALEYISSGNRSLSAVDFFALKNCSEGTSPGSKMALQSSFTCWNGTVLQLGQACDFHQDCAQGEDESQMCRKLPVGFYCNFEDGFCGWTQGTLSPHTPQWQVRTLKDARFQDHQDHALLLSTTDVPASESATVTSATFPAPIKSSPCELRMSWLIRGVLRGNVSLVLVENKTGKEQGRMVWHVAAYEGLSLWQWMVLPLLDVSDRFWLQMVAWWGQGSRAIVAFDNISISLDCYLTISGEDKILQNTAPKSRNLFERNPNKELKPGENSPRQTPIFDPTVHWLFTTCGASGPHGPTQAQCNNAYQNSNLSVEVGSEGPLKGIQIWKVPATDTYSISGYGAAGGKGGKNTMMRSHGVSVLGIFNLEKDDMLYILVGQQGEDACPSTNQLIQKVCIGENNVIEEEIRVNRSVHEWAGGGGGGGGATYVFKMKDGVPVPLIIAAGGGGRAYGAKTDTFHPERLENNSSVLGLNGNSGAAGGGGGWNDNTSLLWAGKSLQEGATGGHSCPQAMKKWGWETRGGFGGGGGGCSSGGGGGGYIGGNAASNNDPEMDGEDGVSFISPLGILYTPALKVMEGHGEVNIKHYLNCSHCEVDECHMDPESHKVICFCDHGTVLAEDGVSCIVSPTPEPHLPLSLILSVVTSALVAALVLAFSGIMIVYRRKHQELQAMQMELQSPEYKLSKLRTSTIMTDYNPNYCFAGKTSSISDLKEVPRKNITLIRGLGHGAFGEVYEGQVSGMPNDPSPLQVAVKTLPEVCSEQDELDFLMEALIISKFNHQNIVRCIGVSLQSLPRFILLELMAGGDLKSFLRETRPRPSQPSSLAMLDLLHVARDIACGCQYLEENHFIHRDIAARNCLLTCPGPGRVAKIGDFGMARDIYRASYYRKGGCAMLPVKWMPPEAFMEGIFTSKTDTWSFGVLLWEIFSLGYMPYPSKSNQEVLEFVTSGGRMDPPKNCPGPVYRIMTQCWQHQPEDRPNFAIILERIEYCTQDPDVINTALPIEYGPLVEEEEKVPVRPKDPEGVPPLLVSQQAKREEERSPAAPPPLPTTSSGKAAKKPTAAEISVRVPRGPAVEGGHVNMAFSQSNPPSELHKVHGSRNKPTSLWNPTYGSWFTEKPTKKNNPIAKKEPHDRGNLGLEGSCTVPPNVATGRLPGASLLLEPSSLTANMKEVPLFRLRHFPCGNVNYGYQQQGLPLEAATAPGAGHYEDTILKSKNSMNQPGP
# NPM/ALK (Nucleophosmin/ALK tyrosine kinase receptor), sequence (P06748 whole entry, further chain): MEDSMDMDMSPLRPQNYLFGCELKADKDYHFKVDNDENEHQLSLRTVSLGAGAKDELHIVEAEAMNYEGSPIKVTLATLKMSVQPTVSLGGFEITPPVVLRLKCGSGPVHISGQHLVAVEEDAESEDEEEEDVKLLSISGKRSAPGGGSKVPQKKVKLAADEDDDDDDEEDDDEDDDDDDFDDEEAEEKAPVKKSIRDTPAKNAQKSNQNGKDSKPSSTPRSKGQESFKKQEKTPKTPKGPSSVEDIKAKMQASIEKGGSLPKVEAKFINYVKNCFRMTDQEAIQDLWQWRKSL
# ALK tyrosine kinase receptor, sequence (Q9UM73 whole entry, the tested form may be a part): as the sequence (Q9UM73 whole entry) above
# Insulin receptor, sequence (P06213 28-758 limits assumed): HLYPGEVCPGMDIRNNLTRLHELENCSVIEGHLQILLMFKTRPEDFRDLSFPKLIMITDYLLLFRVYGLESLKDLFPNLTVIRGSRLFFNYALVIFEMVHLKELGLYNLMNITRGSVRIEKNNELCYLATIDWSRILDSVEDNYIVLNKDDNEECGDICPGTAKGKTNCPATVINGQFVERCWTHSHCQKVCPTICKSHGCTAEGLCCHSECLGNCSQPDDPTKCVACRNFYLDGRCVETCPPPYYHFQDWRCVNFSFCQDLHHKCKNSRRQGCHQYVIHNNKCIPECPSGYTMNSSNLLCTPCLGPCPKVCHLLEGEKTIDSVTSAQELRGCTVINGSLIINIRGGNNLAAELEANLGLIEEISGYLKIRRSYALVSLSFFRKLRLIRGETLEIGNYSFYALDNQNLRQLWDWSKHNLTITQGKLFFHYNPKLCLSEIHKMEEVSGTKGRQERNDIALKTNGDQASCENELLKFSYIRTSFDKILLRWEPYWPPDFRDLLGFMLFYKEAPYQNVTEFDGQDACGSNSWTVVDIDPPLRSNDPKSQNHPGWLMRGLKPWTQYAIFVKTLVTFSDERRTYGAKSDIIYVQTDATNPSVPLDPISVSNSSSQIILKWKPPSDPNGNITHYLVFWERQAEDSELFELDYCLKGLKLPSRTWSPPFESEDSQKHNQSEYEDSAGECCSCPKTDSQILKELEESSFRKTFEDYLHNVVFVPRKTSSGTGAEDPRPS
# Insulin receptor, sequence (P06213 763-1382 limits assumed): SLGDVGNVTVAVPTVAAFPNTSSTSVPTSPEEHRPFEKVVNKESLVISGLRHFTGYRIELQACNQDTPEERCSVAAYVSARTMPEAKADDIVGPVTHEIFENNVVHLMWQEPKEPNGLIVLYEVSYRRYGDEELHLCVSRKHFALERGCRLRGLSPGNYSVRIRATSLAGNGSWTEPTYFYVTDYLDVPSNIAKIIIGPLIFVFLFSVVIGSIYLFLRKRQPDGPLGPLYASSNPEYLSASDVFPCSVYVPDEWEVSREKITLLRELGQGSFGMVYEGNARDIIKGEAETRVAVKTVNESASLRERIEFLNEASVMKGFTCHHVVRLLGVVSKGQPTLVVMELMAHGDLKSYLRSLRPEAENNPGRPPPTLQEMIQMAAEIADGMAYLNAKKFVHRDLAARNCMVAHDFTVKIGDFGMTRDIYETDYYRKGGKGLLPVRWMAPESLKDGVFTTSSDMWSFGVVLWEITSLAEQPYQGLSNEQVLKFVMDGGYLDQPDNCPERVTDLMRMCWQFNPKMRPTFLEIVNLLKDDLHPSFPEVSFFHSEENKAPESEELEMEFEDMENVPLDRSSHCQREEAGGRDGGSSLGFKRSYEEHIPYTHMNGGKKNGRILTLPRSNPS
smiles,measurement,setting,value
COc1cc(C2CCN(CC(N)=O)CC2)ccc1Nc1ncc2ccc(-c3ccccc3OC)n2n1,AUC(0-t),[1],1760 ng·h/mL
same,Cmax,[2],392 ng/mL
same,AUC(0-t),[3],7550 ng·h/mL
same,Activity,Mus musculus [4],Non-toxic
same,clearance,[5],2 mL/min/kg
same,AUC(0-t),[6],42500 ng·h/mL
same,IC50,[7],6 nM
same,Vd,[8],3.5 L/kg
same,Activity,Mus musculus [9],Non-toxic
same,half-life,[10],6 h
same,bioavailability,[11],43%
same,AUC(0-t),[12],1110 ng·h/mL
same,half-life,[13],3.4 h
same,half-life,[14],4.4 h
same,IC50,[15],100 nM
same,bioavailability,[16],56%
same,inhibition in vivo at 30 mg/kg,Mus musculus [17],80%
same,half-life at 0.5 µM,[18],> 0.667 h
same,IC50,Insulin receptor,222 nM
same,Activity,Mus musculus [19],Non-toxic
same,half-life at 0.5 µM,[20],> 0.667 h
same,Vd,[21],1.1 L/kg
same,Cmax,[22],3470 ng/mL
same,concentration at 12 h,[23],6 µM
same,half-life at 0.5 µM,[24],> 0.667 h
same,Tmax,[25],6 h
same,Kp at 12 h,[26],2
same,Tmax,[27],2 h
same,Activity,Mus musculus [28],Non-toxic
same,clearance,[29],12 mL/min/kg
same,Ratio,Plasma,7
same,half-life at 0.5 µM,[30],> 0.667 h

# Reference: ChEMBL document CHEMBL2157957, “Strategies to mitigate the bioactivation of 2-anilino-7-aryl-pyrrolo[2,1-f][1,2,4]triazines: identification of orally bioavailable, efficacious ALK inhibitors” (J Med Chem, 2012)
